Here are results for two molecules from publication PMC3495945, “Org 214007-0: A Novel Non-Steroidal Selective Glucocorticoid Receptor Modulator with Full Anti-Inflammatory Properties and Improved Therapeutic Index” (PLoS ONE, 2012).

For one experiment, the system named is HepG2 cells. Briefly: Gene expression profiling (microarray) in HepG2 cells. Format: cell-based, human. The conditions noted are these: HepG2, 1 μM compound, 6 hours; prednisolone set at 100%. As for the experimental part: HepG2-8/97-WS.5 cells, deprived from serum for 18 hours, were stimulated with glucocorticoid and 0.5 mM cAMP for 6 hours. RNA was isolated and used for double stranded cDNA synthesis using the One-Cycle Target Labeling Kit (Affymetrix Santa Clara, CA). This cDNA was used as a template for the preparation of biotin-labeled cRNA using the GeneChip IVT Labeling Kit (Affymetrix Santa Clara, CA). Biotin-labeled cRNA was fragmented and hybridized at 45°C for 16–17 hours to the Human Genome U133A 2.0 Array or the Human Genome U133 Plus 2.0 Array (Affymetrix, Santa Clara, CA). (for more detailed information see Supportive Information) (SI text). Arrays were stained with phycoerythrin-streptavidin conjugate (Molecular Probes, Eugene, OR), and the signals were amplified by staining the array with biotin-labeled anti-streptavidin antibody (Vector Laboratories, Burlingame, CA) followed by phycoerythrin-streptavidin. […] Data was saved as raw image file and quantified using GCOS (Affymetrix). […]
HepG2-8/97-WS.5 cells were seeded at 2.10^5 cells/mL in a 24-well plate in DMEM/F12 medium (Gibco), supplemented with 80 U/mL penicillin, 80 μg/mL streptomycin and 5% Fetal Bovine Serum (Invitrogen). […] RNA quantity and quality were determined using the Agilent […] bioanalyzer. […] Data was saved as raw image file and quantified using GCOS (Affymetrix).

The target of the next experiment is T1, GR (Homo sapiens, UniProt P04150).
T1 sequence (P04150 1-777): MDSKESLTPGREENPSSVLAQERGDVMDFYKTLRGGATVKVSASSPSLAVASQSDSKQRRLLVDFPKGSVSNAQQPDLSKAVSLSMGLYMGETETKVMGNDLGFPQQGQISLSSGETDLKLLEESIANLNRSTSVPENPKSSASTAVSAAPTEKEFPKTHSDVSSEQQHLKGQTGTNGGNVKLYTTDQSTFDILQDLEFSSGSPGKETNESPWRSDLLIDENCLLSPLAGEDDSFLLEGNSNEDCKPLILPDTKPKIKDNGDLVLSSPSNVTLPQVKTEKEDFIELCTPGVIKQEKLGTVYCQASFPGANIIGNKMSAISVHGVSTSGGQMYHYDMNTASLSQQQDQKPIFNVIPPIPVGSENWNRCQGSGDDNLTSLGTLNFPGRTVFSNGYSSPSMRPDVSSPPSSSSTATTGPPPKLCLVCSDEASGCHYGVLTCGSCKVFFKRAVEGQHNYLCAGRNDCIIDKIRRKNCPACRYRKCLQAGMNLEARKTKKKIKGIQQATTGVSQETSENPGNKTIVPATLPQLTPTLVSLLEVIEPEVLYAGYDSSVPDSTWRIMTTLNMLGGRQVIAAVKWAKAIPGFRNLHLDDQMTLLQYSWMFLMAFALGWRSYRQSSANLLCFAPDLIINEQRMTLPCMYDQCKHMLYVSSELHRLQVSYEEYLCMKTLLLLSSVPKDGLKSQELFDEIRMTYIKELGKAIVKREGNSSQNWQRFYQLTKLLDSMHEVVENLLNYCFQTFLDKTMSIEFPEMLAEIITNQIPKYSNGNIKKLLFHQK
Briefly: U2OS GR.G9 IFNγ/TNFα-induced MCP-1 release (repression). The format is cell-based. More on the design: expressed in transfected cells; host or cells: U2OS (U2OS GR.G9). The conditions noted are these: for Max. eff., repression of MCP-1 release: IFNγ/TNFα, relative to prednisolone (100%). As to the method:
To determine the repressive activity of GR ligands, cell line U2OS GR.G9, the human osteoblastic cell line U2OS, stably transfected with human GR, was used. Cells (10^4 cells/well) were incubated in 384-wells plates, in the presence of 50 ng/ml TNFα (R&D systems)/100 ng/ml IFNγ (Peprotech) and compound, for 18 hours. Hereafter, a mixture of two different antibodies to hMCP-1, one Eu-labeled and one APC-labeled, were added. One hour later the time-resolved fluorometric resonance energy transfer (TR-FRET) signal was measured. (for more detailed information see Supportive Information) (SI text).
U2OS GR.G9 cells (10^4 cells/well) in Dulbecco's MEM / HAM F12 medium supplemented with 5% charcoal treated bovine calf serum (Hyclone) (v/v) and Penicillin (10 U/ml) -Streptomycin (10 μg/ml) were incubated in 384-wells plates, in the presence of 50 ng/ml TNFα (R&D systems) / 100 ng/ml IFNγ (Peprotech) and compound, for 18 hours in a humidified atmosphere at 37°C under 6.5% CO2. Hereafter, a mixture of 2.2 nM anti-hMCP-1 labeled with fluorescent donor Europium (Eu) and 16.6 nM anti-hMCP-1 labeled with fluorescent acceptor Allophycocyanin (APC) was added to each well and left at roomtemperature for 1 hour. Finally, the time-resolved fluorometric resonance energy transfer (TR-FRET) signal was measured with the Victor^2TM V, 1420 Multilabel Counter (Wallac). Using 4-parameter curve fitting, IC50 values for the compounds were determined.

With `C[C@]12C=CC(=O)C=C1CC[C@@H]1[C@@H]2[C@@H](O)C[C@@]2(C)[C@H]1CC[C@]2(O)C(=O)CO` [prednisolone, reference compound], the “Max eff., induction of gene expression, micro-array” value with HepG2 cells was 100%. The “Max. eff., repression of MCP-1 release” value on GR is listed as 100 (±9.6) %.

On to `Cc1nnsc1C(=O)N[C@H]1CCN2c3ccc(C#N)cc3[C@@H](C)c3ccccc3[C@@H]2C1` [Org 214007-0], for which, in the experiment on HepG2 cells, the “Max eff., induction of gene expression, micro-array” value is reported as 67%. On GR (IFNγ (100 ng/ml)/TNFα (50 ng/ml), 18 hours), this molecule showed an IC50 of 360 pM. Besides, the “Max. eff., repression of MCP-1 release” value is recorded as 81% at GR and 81 (±16) % at GR (listed as Org).
